# Experimental data as given in patent EP4800013A1, “PARG INHIBITOR” (Shanghai Qilu Pharmaceutical Research and Development …, priority 2023, dated 2025).
# Tested on: KURAMOCHI cells
# Test: Inhibition of proliferation of KURAMOCHI cells (CellTiter-Glo, intracellular ATP)
# Type: cell-based
# Settings: 168 h, incubated for 7 days, read-out: IC50 against KURAMOCHI cells
# Method in brief: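 KURAMOCHI cells seeded at 4000/well, incubated overnight, then treated with 9-point 1:4 compound series from 10 µM (0.5% DMSO) for 7 days at 37°C, 5% CO2. Viability read by CellTiter-Glo luminescence; inhibition normalised to medium-only (100%) and DMSO (0%) controls, IC50 from variable-slope four-parameter fit.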
row,SMILES,IC50 [nM]
1,C[C@H]1CN(c2cc(S(=O)(=O)NC3(C)CC3)cc3c2n2nc(C(F)(F)F)nc2n3-c2nnc(C(F)F)s2)C[C@H](C)N1 [Compound 065W],4
2,C[C@H]1CN(c2cc(S(=O)(=O)NC3(C)CC3)cc3c2n2nc(C(F)F)nc2n3-c2nnc(C(F)F)s2)C[C@H](C)N1 [Compound 065S],2
3,CCc1nc2n(-c3nnc(C(F)F)s3)c3cc(S(=O)(=O)NC4(C)CC4)cc(N4C[C@H](C)N[C@@H](C)C4)c3n2n1 [Compound 065R],2
